Each structure is given as a SMILES string.

Broadly, the inhibition is the percentage by which the read-out fell short of the control. A higher inhibition goes with a strong effect.

One experiment relates to IL17A. Description: skin Resident Immune Cell Assay (sRICA), Th17 model, IL17A protein in media. The experiment is classed as cell-based. Conditions: 100 uM solution in 1% DMSO/OD applied topically to human skin; media collected 24 hours after Th17 activation. As for the experimental part: A skin Resident Immune Cell Assay (sRICA) was used to test compounds for reduction of IL-17A protein upregulation in the Th17 sRICA model. In this model, human surgical skin waste was cultured in a transwell system, with the dermis in contact with cell culture media and the stratum corneum exposed to air. To perform the assay, each human skin sample was defatted and dermatomed to 750μm. Next, 8 mm punch biopsies were obtained and placed in a membrane transwell. The transwells were inserted into culture wells with complete media, and a cocktail of cytokines and antibodies were added to promote skin resident immune cell polarization.
RORγt inhibitors were prepared as a 100 uM solution in 1% DMSO/OD. […] of the prepared topical solution was applied to sRICA wells prepared for topical drug evaluation. Drugs were allowed to penetrate the skin overnight, for up to 24 hours prior to Th17 activation. Media was collected 24 hours after Th17 activation for IL17A protein assessment. IL17A protein was evaluated using the Quanterix IL17A detection kit on the SiMoA platform (via CRO Translational Biosciences). There was significant upregulation of IL17A with Th17 activation. Each study was normalized to the % max of IL17A production (i.e. the average IL17A concentration of Th17 activated skin alone) was set to 100%, all other values (untreated no activation and treated samples) were obtained as a percentage of this. […]
In the case of `COCc1ccc([C@@H](NC(=O)Cc2cc(O)no2)C(=O)Nc2cc(F)c(C(C)(C)C)c(F)c2)cc1` [(2R)-N-(4-tert-butyl-3,5-difluorophenyl)-2-(((3-hydroxy-1,2-oxazol-5-yl)acetyl)amino)-2-(4-(methoxymethyl)phenyl)acetamide], the inhibition at 100 µM turned out to be 26.3%.
Consider `COCc1ccc([C@@H](NC(=O)Cc2nnc(C)o2)C(=O)Nc2ccc(C(C)(C)C)c(F)c2)cc1` [(2R)-N-(4-tert-butyl-3-fluorophenyl)-2-(4-(methoxymethyl)phenyl)-2-(((5-methyl-1,3,4-oxadiazol-2-yl)acetyl)amino)acetamide], for which testing at 100 µM gave an inhibition of 62%.
Consider `COCc1ccc([C@@H](NC(=O)Cc2cc(O)no2)C(=O)Nc2ccc(C(C)(C)C)c(F)c2)cc1` [(2R)-N-(4-tert-butyl-3-fluorophenyl)-2-(((3-hydroxy-1,2-oxazol-5-yl)acetyl)amino)-2-(4-(methoxymethyl)phenyl)acetamide], for which the inhibition at 100 µM was 68.1%.
Molecule `CC(C)n1c(=O)n(CC2CC2)c(=O)c2cc(NC(=O)N3CCC[C@@H](NC(=O)c4ccccc4)C3)ccc21` [(3R)-3-(benzoylamino)-N-(3-(cyclopropylmethyl)-1-isopropyl-2,4-dioxo-1,2,3,4-tetrahydroquinazolin-6-yl)piperidine-1-carboxamide] yielded an inhibition at 100 µM of 53.2%.
Regarding `CC(C)n1c(=O)n(CC2CC(F)(F)C2)c(=O)c2cc(NC(=O)N3CCC[C@@H](N4Cc5ccccc5C4=O)C3)c(F)cc21` [(3R)-N-(3-((3,3-difluorocyclobutyl)-methyl)-7-fluoro-1-isopropyl-2,4-dioxo-1,2,3,4-tetrahydro-quinazolin-6-yl)-3-(1-oxo-1,3-dihydro-2H-isoindol-2-yl)-piperidine-1-carboxamide], the inhibition at 100 µM stood at 73.1%.
The same measure, in the same setting: the same measure for `CC(C)n1c(=O)n(CC2CC2)c(=O)c2cc(NC(=O)N3CCC[C@@H](NC(=O)c4cc(F)ccc4F)C3)c(F)cc21` [(3R)-N-(3-(cyclopropylmethyl)-7-fluoro-1-isopropyl-2,4-dioxo-1,2,3,4-tetrahydroquinazolin-6-yl)-3-((2,5-difluorobenzoyl)amino)-piperidine-1-carboxamide]: 44.2%; for `COCc1ccc([C@@H](NC(=O)[C@H]2CNC(=O)C2)C(=O)Nc2cc(F)c(C(C)(C)C)c(F)c2)cc1` [(3R)-N-((1R)-2-((4-tert-butyl-3,5-difluorophenyl)amino)-1-(4-(methoxymethyl)phenyl)-2-oxoethyl)-5-oxopyrrolidine-3-carboxamide]: 63.1%; for `COCc1ccc([C@@H](NC(=O)[C@H]2CNC(=O)C2)C(=O)Nc2ccc(C(C)(C)C)c(F)c2)cc1` [(3R)-N-((1R)-2-((4-tert-butyl-3-fluorophenyl)amino)-1-(4-(methoxymethyl)phenyl)-2-oxoethyl)-5-oxopyrrolidine-3-carboxamide]: 74.1%.
The molecule `CC(C)(C)c1ccc(NC(=O)[C@H](NC(=O)[C@@H]2CNC(=O)C2)c2ccc3c(c2)CCO3)cc1F` [(3S)-N-(2-((4-tert-butyl-3-fluorophenyl)amino)-1-(2,3-dihydro-1-benzofuran-5-yl)-2-oxoethyl)-5-oxopyrrolidine-3-carboxamide] registered an inhibition at 100 µM of 48.7%.
The molecule `COCc1ccc([C@@H](NC(=O)[C@@H]2CNC(=O)C2)C(=O)Nc2ccc(CC(C)(C)C)c(F)c2)cc1` [(3S)-N-((1R)-2-((4-(2,2-dimethylpropyl)-3-fluorophenyl)amino)-1-(4-(methoxymethyl)phenyl)-2-oxoethyl)-5-oxopyrrolidine-3-carboxamide] returned an inhibition at 100 µM of 52.9%.
Molecule `COCc1ccc([C@@H](NC(=O)[C@@H]2CNC(=O)C2)C(=O)Nc2ccc(C(C)(C)C)c(F)c2)cc1` [(3S)-N-((1R)-2-((4-tert-butyl-3-fluorophenyl)amino)-1-(4-(methoxymethyl)phenyl)-2-oxoethyl)-5-oxopyrrolidine-3-carboxamide] displayed an inhibition at 100 µM of 38.7%.

The experiment is the same for the next values; noted with them: Homo sapiens, 24 h, 100 uM solution in 1% DMSO/OD applied topically to human skin; media collected 24 hours after Th17 activation.
As for `COCc1ccc([C@@H](NC(=O)Cn2ccc(=O)[nH]c2=O)C(=O)Nc2ccc([Si](C)(C)C)c(F)c2)cc1` [(2R)-2-(((2,4-dioxo-3,4-dihydropyrimidin-1(2H)-yl)acetyl)amino)-N-(3-fluoro-4-(trimethylsilyl)phenyl)-2-(4-(methoxymethyl)phenyl)acetamide], the inhibition at 100 µM amounted to 68.6%.
The molecule `COCc1ccc([C@@H](NC(=O)CN2C(=O)CNC2=O)C(=O)Nc2ccc([Si](C)(C)C)c(F)c2)cc1` [(2R)-2-(((2,5-dioxoimidazolidin-1-yl)acetyl)amino)-N-(3-fluoro-4-(trimethylsilyl)phenyl)-2-(4-(methoxymethyl)phenyl)acetamide] came in with an inhibition at 100 µM of 36.3%.
As to `COCc1ccc([C@@H](NC(=O)Cc2nnc(C)o2)C(=O)Nc2cc(F)c([Si](C)(C)C)cc2F)cc1` [(2R)-N-(2,5-difluoro-4-(trimethylsilyl)phenyl)-2-(4-(methoxymethyl)phenyl)-2-(((5-methyl-1,3,4-oxadiazol-2-yl)acetyl)amino)acetamide], 100 µM produced 75.7% inhibition.
`COCc1ccc([C@@H](NC(=O)Cn2nc(C)ccc2=O)C(=O)Nc2cc(F)c([Si](C)(C)C)c(F)c2)cc1` [(2R)-N-(3,5-difluoro-4-(trimethylsilyl)phenyl)-2-(4-(methoxymethyl)phenyl)-2-(((3-methyl-6-oxopyridazin-1(6H)-yl)acetyl)amino)acetamide] showed an inhibition at 100 µM of 38.7%.
`COCc1ccc([C@@H](NC(=O)Cc2nnc(C)o2)C(=O)Nc2cc(F)c([Si](C)(C)C)c(F)c2)cc1` [(2R)-N-(3,5-difluoro-4-(trimethylsilyl)phenyl)-2-(4-(methoxymethyl)phenyl)-2-(((5-methyl-1,3,4-oxadiazol-2-yl)acetyl)amino)acetamide] came in with an inhibition at 100 µM of 60.8%.
On the same count and under the same terms, the same measure for `COCc1ccc([C@@H](NC(=O)Cn2cnccc2=O)C(=O)Nc2cc(F)c([Si](C)(C)C)c(F)c2)cc1` [(2R)-N-(3,5-difluoro-4-(trimethylsilyl)phenyl)-2-(4-(methoxymethyl)phenyl)-2-(((6-oxopyrimidin-1(6H)-yl)acetyl)amino)acetamide]: 80%; for `COCc1ccc([C@@H](NC(=O)Cc2cc(O)no2)C(=O)Nc2cc(F)c([Si](C)(C)C)c(F)c2)cc1` [(2R)-N-(3,5-difluoro-4-(trimethylsilyl)phenyl)-2-(((3-hydroxy-1,2-oxazol-5-yl)acetyl)amino)-2-(4-(methoxymethyl)phenyl)acetamide]: 53.9%.
The molecule `COCc1ccc([C@@H](NC(=O)Cc2nnc(C)o2)C(=O)Nc2ccc([Si](C)(C)C)c(F)c2)cc1` [(2R)-N-(3-fluoro-4-(trimethylsilyl)phenyl)-2-(4-(methoxymethyl)phenyl)-2-(((5-methyl-1,3,4-oxadiazol-2-yl)acetyl)amino)acetamide] had an inhibition at 100 µM of 35.5%.
Take `COCc1ccc([C@@H](NC(=O)CS(C)(=O)=O)C(=O)Nc2ccc([Si](C)(C)C)c(F)c2)cc1` [(2R)-N-(3-fluoro-4-(trimethylsilyl)phenyl)-2-(4-(methoxymethyl)phenyl)-2-(((methylsulfonyl)acetyl)amino)acetamide]: the inhibition at 100 µM worked out at 31.3%.
Take `COCc1ccc([C@@H](NC(=O)[C@H]2CNC(=O)C2)C(=O)Nc2cc(F)c([Si](C)(C)C)c(F)c2)cc1` [(3R)-N-((1R)-2-((3,5-difluoro-4-(trimethylsilyl)phenyl)amino)-1-(4-(methoxymethyl)phenyl)-2-oxoethyl)-5-oxopyrrolidine-3-carboxamide]: the inhibition at 100 µM came out at 63%.
`COc1ccc([C@@H](NC(=O)[C@H]2CNC(=O)C2)C(=O)Nc2ccc([Si](C)(C)C)c(F)c2)cc1` [(3R)-N-((1R)-2-((3-fluoro-4-(trimethylsilyl)phenyl)amino)-1-(4-(methoxy)phenyl)-2-oxoethyl)-5-oxopyrrolidine-3-carboxamide] gave an inhibition at 100 µM of 65.2%.
In the case of `COc1ccc([C@@H](NC(=O)N2CC[C@@H](O)C2)C(=O)Nc2ccc([Si](C)(C)C)c(F)c2)cc1` [(3R)-N-((1R)-2-((3-fluoro-4-(trimethylsilyl)phenyl)amino)-1-(4-methoxyphenyl)-2-oxoethyl)-3-hydroxypyrrolidine-1-carboxamide], the inhibition at 100 µM was 46.9%.
In turn, `Cn1ncc2cc(C(NC(=O)[C@@H]3CNC(=O)C3)C(=O)Nc3ccc([Si](C)(C)C)c(F)c3)ccc21` (stereo partly drawn) [(3S)-N-(2-((3-fluoro-4-(trimethylsilyl)phenyl)amino)-1-(1-methyl-1H-indazol-5-yl)-2-oxoethyl)-5-oxopyrrolidine-3-carboxamide] yielded an inhibition at 100 µM of 58.3%.
Same read-out and setting: under `COCc1ccc([C@@H](NC(=O)[C@@H]2CNC(=O)C2)C(=O)Nc2cc(F)c([Si](C)(C)C)c(F)c2)cc1` [(3S)-N-((1R)-2-((3,5-difluoro-4-(trimethylsilyl)phenyl)amino)-1-(4-(methoxymethyl)phenyl)-2-oxoethyl)-5-oxopyrrolidine-3-carboxamide] stands 23.6%.
`COc1ccc2c(c1)OCCN(C(=O)Cc1cc(O)no1)[C@H]2C(=O)Nc1cc(F)c([Si](C)(C)C)c(F)c1` [(5R)-N-(3,5-difluoro-4-(trimethylsilyl)phenyl)-4-((3-hydroxy-1,2-oxazol-5-yl)acetyl)-8-methoxy-2,3,4,5-tetrahydro-1,4-benzoxazepine-5-carboxamide] came in with an inhibition at 100 µM of 58.1%.

These data come from patent US20220409643A1, “ROR Gamma T Inhibitors and Topical Uses Thereof” (Dermira, inc., priority 2019, published 2022).
